Data reported in the NIST ThermoML archive (doi:10.1021/je034177v).

Tests used:
[1] = 101 kPa, Liquid; for speed of sound: Pulse-echo method; for mass density: Vibrating tube method
[2] = molar heat capacity at constant pressure; details: 101 kPa, Liquid, Small sample (50 mg) DSC
[3] = molar heat capacity at constant pressure; xn = mol fraction of the nth substance listed; details: 101 kPa, Liquid, Small sample (50 mg) DSC, x2 = 0
[4] = xn = mol fraction of the nth substance listed; details: 101 kPa, Liquid, x2 = 0; for speed of sound: Pulse-echo method; for mass density: Vibrating tube method

CCCCCCCCCCCC [dodecane]
Details	mass density, [1] [kg/m3]	molar heat capacity at constant pressure, [2] [J/K/mol]	speed of sound, [1] [m/s]
278.15 K	759.56	–	1357
283.15 K	755.96	368.47	1337.4
288.15 K	752.36	370.48	1317.6
293.15 K	748.74	372.74	1298
298.15 K	745.14	375.04	1278.5
303.15 K	741.52	377.43	1259.2
308.15 K	737.88	380.02	1240
313.15 K	734.24	382.73	1221
318.15 K	730.6	385.48	1202.3
323.15 K	726.95	388.29	1183.6
328.15 K	723.29	–	1165.1

ClCCCCCCCl [1,6-dichlorohexane]
Details	mass density, [1] [kg/m3]	molar heat capacity at constant pressure, [2] [J/K/mol]	speed of sound, [1] [m/s]
278.15 K	1082.7	–	1387.4
283.15 K	1077.97	236.59	1370
288.15 K	1073.22	237.9	1352.3
293.15 K	1068.47	239.26	1334.8
298.15 K	1063.74	240.6	1317.3
303.15 K	1059	241.94	1299.9
308.15 K	1054.25	243.37	1282.7
313.15 K	1049.5	244.81	1265.7
318.15 K	1044.78	246.28	1248.7
323.15 K	1040.03	247.76	1231.8
328.15 K	1035.37	–	1215.1

CCCCCCCCCCCC [dodecane] + ClCCCCCCCl
Details	mass density, [4] [kg/m3]	molar heat capacity at constant pressure, [3] [J/K/mol]	speed of sound, [4] [m/s]
278.15 K	759.56	–	1357
283.15 K	755.96	368.47	1337.4
288.15 K	752.36	370.48	1317.6
293.15 K	748.74	372.74	1298
298.15 K	745.14	375.04	1278.5
303.15 K	741.52	377.43	1259.2
308.15 K	737.88	380.02	1240
313.15 K	734.24	382.73	1221
318.15 K	730.6	385.48	1202.3
323.15 K	726.95	388.29	1183.6
328.15 K	723.29	–	1165.1

CCCCCCCCCCCC [dodecane] + ClCCCCCCl
Details	mass density, [4] [kg/m3]	molar heat capacity at constant pressure, [3] [J/K/mol]	speed of sound, [4] [m/s]
278.15 K	759.56	–	1357
283.15 K	755.96	368.47	1337.4
288.15 K	752.36	370.48	1317.6
293.15 K	748.74	372.74	1298
298.15 K	745.14	375.04	1278.5
303.15 K	741.52	377.43	1259.2
308.15 K	737.88	380.02	1240
313.15 K	734.24	382.73	1221
318.15 K	730.6	385.48	1202.3
323.15 K	726.95	388.29	1183.6
328.15 K	723.29	–	1165.1

ClCCCCCCl [1,5-dichloropentane]
Details	mass density, [1] [kg/m3]	molar heat capacity at constant pressure, [2] [J/K/mol]	speed of sound, [1] [m/s]
278.15 K	1115.28	–	1376.6
283.15 K	1110.26	209.65	1358.9
288.15 K	1105.2	210.73	1341
293.15 K	1100.16	211.89	1323.2
298.15 K	1095.11	212.94	1305.4
303.15 K	1090.07	214.06	1287.9
308.15 K	1085.02	215.21	1270.3
313.15 K	1079.97	216.38	1253
318.15 K	1074.95	217.56	1235.8
323.15 K	1069.89	218.76	1218.7
328.15 K	1064.93	–	1201.6
